Source: US20220331348A1, “METHOD OF PREPARING PENTACYCLIC TRITERPENOID SAPONINS AND DRUG COMPOSITION” (CHINA PHARMACEUTICAL UNIVERSITY, priority 2019, published 2022)

Columns and labels:
[1] = test system: CCl4-induced hepatic fibrosis mice; assay: CCl4-induced hepatic fibrosis mice; assay type: in vivo, mouse; conditions: for MMP2 gene expression / TGF-β gene expression / collagen 1 gene expression: CCl4-induced hepatic fibrosis mice, 5 mg/Kg, n = 8
Protocol: Animal: 32 C57BL/6J male mice of SPF level with 25 g were purchased from Beijing Vital River Laboratory Animal Technology Co., Ltd. All the animals maintained 12 h alternative circadian rhythm with free access to food.
Reagent: the ginsenoside Ro was purchased from Shanghai Boka Chemistry Technology Co., Ltd; CCl4 was purchased from sigma Company; and sunflower seed oil was purchased from Nanjing Yuanye Biotechnology Co., Ltd.
The mice were randomly divided into 4 groups based on weights: a blank control group (CTL), a model group (CCl4), a ginsenoside Ro low-dosage group (Low) (5 mg/kg) and a ginsenoside Ro high-dosage group (High) (10 mg/kg), totally 4 groups (with 8 mice each).
A modeling mode was that the mice were given with a CCl4-contained sunflower seed oil solution (with a CCl4 content of 25%, v/v) in a dosage of 2mL/kg by intraperitoneal injection, and the mice in the control group were injected with a corresponding dosage of the sunflower seed oil solution two times per week. From experiment day 1 onward, the mice in the control group were given with a CMC-Na solution with the mass fraction of 0.5% intragastrically every day and with sunflower seed oil two times per week by intraperitoneal injection; the mice in the model group were given with the CMC-Na solution with the mass fraction of 0.5% intragastrically every day and with the CCl4-contained sunflower seed oil solution two times per week by intraperitoneal injection; the mice in the ginsenoside Ro low-dosage group (Low) were given with 5 mg/kg of the ginsenoside Ro intragastrically every day and with a CCl4 solution two times per week by intraperitoneal injection; and the mice in the ginsenoside Ro high-dosage group (High) were given with 10 mg/kg of the ginsenoside Ro intragastrically every day and with the CCl4-contained sunflower seed oil solution two times per week by intraperitoneal injection. Administration was conducted for a total of 4 weeks.
The mice were deprived of food but not water for 12 h in advance; and the next morning, blood was taken from eyeballs, the mice were sacrificed, and livers were harvested. Right liver lobule tissues were fixed with 4% paraformaldehyde for HE stained slicing. The rest liver tissues were divided into 3 parts, which were snap-frozen in liquid nitrogen for subsequent detection of other indexes.
Whole blood was left to still standing for 2 h at room temperature, centrifugation was conducted for 15 min at 3000 rpm, and a serum was collected and sent to Pathologic Department of Hospital of Integrated Traditional Chinese and Western Medicine in Jiangsu Province for determination of levels of glutamic oxalacetic transaminase (AST) and glutamic-pyruvic transaminase (ALT) in the serum with a full-automatic biochemical analyzer.
Pretreated tissues were sent to Google Biotechnology Co., Ltd for preparing HE stained slices.
6. Extraction of Liver Tissue RNA and q-PCR Detection Liver tissues preserved at −80° C. were put in the liquid nitrogen, about 10 mg of the liver tissues were quickly dissected out, about 500 μL of a precooled Trizol reagent was added, the tissues were homogenized with the homogenizer and then left to lyse on the ice for 15 min, 100 μL of chloroform was added for vigorous shaking for 15 s, and a product was put on the ice for 10 min and then was subjected to centrifugation for 15 min at 4° C. and 12000 rpm. An upper aqueous phase was transferred to a clean 1.5 mL EP tube, […] of isopropanol was added for RNA precipitation, the EP tube was put on the ice for 10 min and then was subjected to centrifugation for 10 min at 4° C. and 12000 rpm. The supernate was discarded, precipitates were washed one time with 75% ethyl alcohol, a supernate was discarded after centrifugation, and precipitates of
RNA dissolved with the water were treated with 40 mL of DEPC. […]

[2] = test system: AMPK and mTOR signaling pathways in polycystic kidney epithelial cells; assay: Western blot of AMPK and proliferation-related signal molecules in polycystic kidney epithelial cells; assay type: cell-based, human; conditions: 10 μM, 48 h, Western blot (FIG. 16)
From the text: Cell and reagent: complete media for human ADPKD cyst lining epithelial cell lines WT9-12 and DMEM were purchased from ATCC Company; fetal calf serums were purchased from Gibco Company; Cell Counting Kit-8 was purchased from DOJINDO Company; Click-iT® EdU Imaging Kits were purchased from Invitrogen™ Thermo Fisher Scientific Company; Caspase -3/CPP32 Colorimetric Assay Kit was purchased from BioVision Company; Annexin V/PI double-staining flow type cell apoptosis detection kits were purchased from Bender Company; and anti-Phospho-(AMPKa, mTOR, p70S6K, 4E-BP1) antibodies were purchased from Cell Signaling Technology Company.
Detection on protein expression with Western blot: cells in the control group and the treatment group (intervening the polycystic kidney epithelial cell with 10 μM of asperosaponin VI for 48 h) were collected, cells were lysed with a RIPA lysate for extraction of total proteins, the concentration of proteins was detected with a BCA method, and […] of sample proteins were taken for sample addition in sequence; after SDS-PAGE electrophoresis, the sample proteins were transferred onto PVDF membranes at a constant current (I=250 mA), were blocked for 1 h with 5% BSA and were incubated for 24 h with different primary antibodies; after the membranes were washed four times with TBST, incubation was conducted for 1.5 h at a normal temperature by using HRP-labeled second antibodies (1:10000); and after the membranes were washed four times with TBST, the proteins were developed with an ECL, and protein bands of various groups were subjected to gray scale analysis with an Image-J gel image analysis software.

[3] = CCl4 mice liver, 5 mg/kg and 10 mg/kg, 4 weeks, q-PCR (FIG. 9)
[4] = CCl4 mice, low-dosage 5 mg/kg and high-dosage 10 mg/kg intragastrically every day, 4 weeks (FIG. 8)

Row | Compound | hepatic fibrosis induced by CCl4 ([1]; CCl4 mice, summary in words) | MMP2 gene expression [1] | TGF-β gene expression [1] | collagen 1 gene expression [1] | further results
1 | CC1(C)CC[C@]2(C(=O)O[C@@H]3O[C@H](CO)[C@@H](O)[C@H](O)[C@H]3O)CC[C@]3(C)C(=CC[C@@H]4[C@@]5(C)CC[C@H](O[C@@H]6O[C@H](C(=O)O)[C@@H](O)[C@H](O)[C@H]6O[C@@H]6O[C@H](CO)[C@@H](O)[C@H](O)[C@H]6O)C(C)(C)[C@@H]5CC[C@]43C)[C@@H]2C1 [(I), ginsenoside Ro] | significantly inhibit | – | – | – | mRNA expression level of -SMA [1, 3]: significantly lowered; mRNA expression level of MMP2 [1, 3]: significantly lowered; mRNA expression level of TGF [1, 3]: significantly lowered; mRNA expression level of collagen 1 [1, 3]: significantly lowered; level of the ALT in the serum [1, 4]: significantly lowered; level of the AST in the serum [1, 4]: significantly lowered; inflammatory responses of hepatic fibrosis animal models ([1]; CCl4 mice, summary in words): significantly inhibit
2 | C[C@@H]1O[C@@H](O[C@H]2[C@H](O[C@H]3CC[C@@]4(C)[C@@H](CC[C@]5(C)[C@@H]4CC=C4[C@@H]6CC(C)(C)CC[C@]6(C(=O)O)CC[C@]45C)[C@]3(C)CO)OC[C@H](O)[C@@H]2O)[C@H](O)[C@H](O)[C@H]1O [(X), α-hederin] | effectively inhibit | 6.37 ± 5.73 fold induction compared with the control group | 2.75 ± 0.99 fold induction compared with the control group | 7.93 ± 2.28 fold induction compared with the control group | –
3 | C[C@@H]1O[C@@H](O[C@H]2[C@H](O[C@H]3CC[C@@]4(C)[C@@H](CC[C@]5(C)[C@@H]4CC=C4[C@@H]6CC(C)(C)CC[C@]6(C(=O)O[C@@H]6O[C@H](CO[C@@H]7O[C@H](CO)[C@@H](O[C@@H]8O[C@@H](C)[C@H](O)[C@@H](O)[C@H]8O)[C@H](O)[C@H]7O)[C@@H](O)[C@H](O)[C@H]6O)CC[C@]45C)[C@]3(C)CO)OC[C@H](O)[C@@H]2O)[C@H](O)[C@H](O)[C@H]1O [(XI), hederacoside C] | effectively inhibit | 7.65 ± 4.03 fold induction compared with the control group | 2.96 ± 1.01 fold induction compared with the control group | 8.07 ± 3.27 fold induction compared with the control group | –
4 | C[C@@H]1CC[C@]2(C(=O)O)CC[C@]3(C)C(=CC[C@@H]4[C@@]5(C)CC[C@H](O[C@@H]6OC[C@H](O)[C@H](O)[C@H]6O)C(C)(C)[C@@H]5CC[C@]43C)[C@@H]2[C@]1(C)O [(XIII), ziyuglycoside II] | effectively inhibit | 7.38 ± 3.48 fold induction compared with the control group | 3.03 ± 0.76 fold induction compared with the control group | 8.16 ± 3.37 fold induction compared with the control group | –
5 | CC1(C)CC[C@]2(C(=O)O[C@@H]3O[C@H](CO[C@@H]4O[C@H](CO)[C@@H](O)[C@H](O)[C@H]4O)[C@@H](O)[C@H](O)[C@H]3O)CC[C@]3(C)C(=CC[C@@H]4[C@@]5(C)CC[C@H](O[C@@H]6OC[C@H](O)[C@H](O)[C@H]6O)[C@@](C)(CO)[C@@H]5CC[C@]43C)[C@@H]2C1 [(II), asperosaponin VI] | – | – | – | – | phosphorylation level of 4E-BP1 [2]: lowered; phosphorylation level of AMPKa [2]: increased; phosphorylation level of mTOR [2]: lowered; phosphorylation level of p70S6K [2]: lowered
6 | C[C@@H]1CC[C@]2(C(=O)O[C@@H]3O[C@H](CO)[C@@H](O)[C@H](O)[C@H]3O)CC[C@]3(C)C(=CC[C@@H]4[C@@]5(C)CC[C@H](O[C@@H]6OC[C@H](O)[C@H](O)[C@H]6O)C(C)(C)[C@@H]5CC[C@]43C)[C@@H]2[C@]1(C)O [(XII), ziyuglycoside I] | effectively inhibit | 8.38 ± 3.86 fold induction compared with the control group | 2.91 ± 1.10 fold induction compared with the control group | 7.65 ± 2.43 fold induction compared with the control group | –
